Data taken from US11945847B2, “Optogenetic induction of neurodegenerative disease pathologies” (UNIVERSITY OF PITTSBURGH—OF THE COMMONWEALTH SYSTEM OF …, priority 2017, dated 2024).

How the values were obtained:
HEK cells [1] = assay: Light-induced oligomerization of optogenetic TDP-43 fragments, live confocal microscopy; assay type: cell-based; details: for oligomerization after a brief pulse of blue light: 8 sec, live confocal microscopy; for oligomerization after a brief pulse of blue light / persistence of oligomers: 10% laser power, 488 nm; for persistence of oligomers: after brief pulse 8 sec
From the text: (§1) FIGS. 4A-4E show light-induced aggregation of low-complexity domain proteins. Optogenetic TDP-43 fragments containing the low-complexity domain (LCD) undergo progressive aggregation with light stimulation. […] (FIGS. 4C-4D) Optogenetic LCD fragments also continue to aggregate following brief light pulses, growing in size over time. (FIG. 4E) Persistent blue light stimulation of the TDP-43 LCD forms intracellular aggregates in the cells.
Beyond protein aggregation, this system creates light-induced pathologies that mimic key pathological features found in patients making it unique compared to overexpression systems. The TDP-43 protein, which contains an LCD, was combined with the CRY2OLIG photoreceptor domain which clusters when exposed to blue light and becomes insoluble and aggregated with persistent light treatment. Fusion proteins of the full length and partial LCD sequence were generated to recapitulate human neurodegenerative disease pathology, including the cytoplasmic mislocalization of nuclear proteins that occurs in patients with ALS and FTD. This system could induce neurodegenerative disease protein aggregates in live HEK cells by exposing them to various blue light stimuli paradigms (FIGS. 4-5). In addition, biochemical hallmarks of ALS, FTD, and AD (FIG. 7) were produced showing that the cell is responding to the light-induced aggregates as observed in patient CNS despite the addition of these tags. […] Employing this DNA arrangement and light stimulation system as an example, cytoplasmic TDP-43 aggregates were obtained that are also ubiquitinylated, cleaved, and hyperphosphorylated as observed in ALS, FTD, and AD patients. TDP-43 pathology is also found in AD as well as Chronic Traumatic Encephalopathy (CTE) thus highlighting the potential disease relevance of this work. In addition, a protein arrangement and light stimulation paradigm was developed to induce the aggregation of α-synuclein (FIG. 6), which is found in the CNS of patients diagnosed with Parkinson's Disease and Lewy Body Dementia. Methods were also developed to induce intracellular aggregation of Tau protein using both the Cry-PHR and LOV photoreceptors (FIG. 7) and persistent blue light stimulation. These tau tangles are pathological hallmarks of AD, FTD and CTE in HEK cells. […] Finally, it was shown that this method can be utilized to seed aggregations, as aggregates of TDP-43 formed using this method recruit endogenous TDP-43 to seed the pathogenic neuropathology (FIGS. 5F, 5G).

[2] = Aggregation potential of CRY2 or VVD fusion proteins by protein arrangement; assay type: cell-based; details: protein arrangement and light stimulation paradigm
From the text: FIGS. 9A-9B show the aggregation potential of CRY2 or VVD fusion proteins based on the protein arrangement and light stimulation paradigm combination. Studies indicate that the ability of Cry2 or VVD photoreceptor to stimulate clustering and activation are dependent on the protein arrangement as well as the light stimulation paradigm.

live cells = assay: Blue light-induced clustering/aggregation of CRY2OLIG constructs visualized in live cells; assay type: cell-based; details: specific blue light stimulation paradigms
From the text: FIGS. 2A-2B describe methods to generate neuropathological aggregate proteins containing an LCD/IDR/Prion-like domain with light using TDP-43 and CRY2OLIG as an example. Various protein arrangements and blue light exposure paradigms were developed to induce protein aggregation of proteins and protein fragments containing LCD/IDR/prion-like domains, promote the mislocalization of nuclear proteins and recapitulate the neuropathology of neurodegenerative diseases. TDP-43 is a predominantly nuclear protein that contains an IDR/IDD/prion-like domain, and is mislocalized and aggregated in ALS, FTD, and some AD patients, as an example. DNA sequences were engineered to generate amino acid sequences that encode for a the CRY2OLIG protein that clusters when exposed to blue light generated a fusion protein either the entire TDP-43 protein (cry2-TDP43-mCh) or just the low complexity domain (LCD/IDD/prion-like domain), which makes TDP-43 aggregation prone (Cry2-274-mCh). As a control, CRY2OLIG alone was used. All constructs were fused to a fluorescent protein called mCherry (mCh) to visualize the proteins in live cells.

HEK293 cells [3] = assay: Fluorescence recovery after photobleaching (FRAP) of light-induced TDP-43 inclusions; assay type: cell-based; details: persistent / chronic blue light-induced inclusions
From the text: as §1
FIGS. 5A-5K show chronic blue light stimulation induces optoTDP43 mislocalization and aggregation that recapitulates pathological hallmarks seen in patient CNS tissue. HEK293 cells expressing optoTDP43-mCh were exposed to 488 nm LED stimulation or darkness for up to 36 hours. […] (FIG. 5E) Fluorescence recovery after photobleaching (FRAP) imaging was performed to assess dynamicity of optoTDP43 structures. […] (FIG. 5F) Detergent-solubility of optoTDP43 structures was assessed by subcellular fractionation to confirm aggregated state of light-induced optoTDP43 granules. […] Human ReN neurons expressing TDP43-mCh or optoTDP43 were exposed to chronic blue light stimulation and viability was simultaneously monitored by longitudinal imaging.

HEK293 cells [4] = assay: Chronic blue light stimulation: optoTDP43 mislocalization and aggregation; assay type: cell-based
Protocol: (§2) FIGS. 5A-5K show chronic blue light stimulation induces optoTDP43 mislocalization and aggregation that recapitulates pathological hallmarks seen in patient CNS tissue. HEK293 cells expressing optoTDP43-mCh were exposed to 488 nm LED stimulation or darkness for up to 36 hours. […] (FIG. 5E) Fluorescence recovery after photobleaching (FRAP) imaging was performed to assess dynamicity of optoTDP43 structures. […] (FIG. 5F) Detergent-solubility of optoTDP43 structures was assessed by subcellular fractionation to confirm aggregated state of light-induced optoTDP43 granules. […] In addition to increased insolubility of exogenous, full-length optoTDP43 (top band), chronic blue light exposure also results in recruitment of aberrant optoTDP43 cleavage products (middle bands), as well as endogenous full-length TDP-43 and disease-relevant cleavage products (bottom bands), to the detergent-insoluble, urea-soluble fraction of cell lysates as is observed in patient tissue. (FIG. 5G) To confirm direct recruitment of non-optogenetic TDP-43 species to exogenous light-induced optoTDP43 inclusions, EGFP-tagged TDP-43 was co-expressed with optoTDP43 or the Cry2 photoreceptor-only control. […] Human ReN neurons expressing TDP43-mCh or optoTDP43 were exposed to chronic blue light stimulation and viability was simultaneously monitored by longitudinal imaging.

HEK293 cells [5] = assay: Detergent-solubility by subcellular fractionation; assay type: cell-based; details: with and without light treatment; chronic blue light stimulation
Protocol: as §2

EGFP-tagged TDP-43 = target: T1, EGFP-tagged TDP-43 (Homo sapiens, UniProt Q13148); assay: Recruitment of co-expressed EGFP-tagged TDP-43 to light-induced inclusions (co-localization); assay type: cell-based; details: chronic blue light stimulation
T1 construct: expressed in transfected cells
T1 sequence (Q13148 whole entry): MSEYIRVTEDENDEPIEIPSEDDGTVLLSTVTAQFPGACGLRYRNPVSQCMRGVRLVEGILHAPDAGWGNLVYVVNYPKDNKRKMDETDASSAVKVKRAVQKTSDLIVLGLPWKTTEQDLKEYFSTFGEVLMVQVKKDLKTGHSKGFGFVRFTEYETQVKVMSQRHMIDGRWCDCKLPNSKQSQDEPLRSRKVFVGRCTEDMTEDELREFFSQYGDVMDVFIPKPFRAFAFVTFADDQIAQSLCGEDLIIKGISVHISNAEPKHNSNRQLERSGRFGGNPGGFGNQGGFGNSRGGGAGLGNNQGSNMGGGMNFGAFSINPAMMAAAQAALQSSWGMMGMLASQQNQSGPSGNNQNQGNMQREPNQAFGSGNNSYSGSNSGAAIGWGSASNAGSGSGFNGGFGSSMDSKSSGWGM
Protocol: as §2

HEK293 cells [6] = assay: Immunofluorescence analysis of pathological hallmarks of light-induced optoTDP43 aggregates; assay type: cell-based
Protocol: FIGS. 5A-5K show chronic blue light stimulation induces optoTDP43 mislocalization and aggregation that recapitulates pathological hallmarks seen in patient CNS tissue. HEK293 cells expressing optoTDP43-mCh were exposed to 488 nm LED stimulation or darkness for up to 36 hours. […] (FIG. 5E) Fluorescence recovery after photobleaching (FRAP) imaging was performed to assess dynamicity of optoTDP43 structures. […] (FIG. 5F) Detergent-solubility of optoTDP43 structures was assessed by subcellular fractionation to confirm aggregated state of light-induced optoTDP43 granules. […] In addition to increased insolubility of exogenous, full-length optoTDP43 (top band), chronic blue light exposure also results in recruitment of aberrant optoTDP43 cleavage products (middle bands), as well as endogenous full-length TDP-43 and disease-relevant cleavage products (bottom bands), to the detergent-insoluble, urea-soluble fraction of cell lysates as is observed in patient tissue. (FIG. 5G) To confirm direct recruitment of non-optogenetic TDP-43 species to exogenous light-induced optoTDP43 inclusions, EGFP-tagged TDP-43 was co-expressed with optoTDP43 or the Cry2 photoreceptor-only control. […] (FIG. 5H-5J) Immunofluorescence analysis was performed on light-induced optoTDP43 aggregates to confirm pathological hallmarks seen in patient tissue. optoTDP43 inclusions appear to be (FIG. 5H) ubiquitinated, (FIG. 5I) hyperphosphorylated, and (FIG. 5J) p62-positive, all of which have been observed with TDP-43 inclusions in patient CNS. (FIG. 5K) Automated high-throughput confocal microscopy was performed to assess the neurotoxicity of light-induced optoTDP43 inclusions. Human ReN neurons expressing TDP43-mCh or optoTDP43 were exposed to chronic blue light stimulation and viability was simultaneously monitored by longitudinal imaging.

Human ReN neurons = assay: Neurotoxicity by automated high-throughput confocal longitudinal imaging; assay type: cell-based; details: chronic blue light stimulation
Protocol: as §2

HEK cells [7] = assay: Acute blue light stimulation: pathological aggregate formation and toxicity; assay type: cell-based
From the text: FIG. 10B is a schematic of a screening pipeline to use the induction of neurodegenerative disease pathology to identify therapeutic compounds that rescue toxicity and prevent or remove the formation of the induced neurodegenerative disease pathology.

[8] = target: the molecule itself; assay: self-association in live cells on blue light, mCherry fluorescence
[9] = cited from earlier work

Molecule: optoRRM2+LCD: Optogenetic C-terminal fragment of TDP-43 containing RRM2 and the low-complexity domain
- oligomerization after a brief pulse of blue light (HEK cells [1]): rapidly oligomerize
- persistence of oligomers (HEK cells [1]): persist much longer than the Cry2 photoreceptor alone

Molecule: TDP-43-CRY2OLIG-mCh: full length TDP-43, Cry2olig, mCherry reporter arrangement
- ability to aggregate [2]: mislocalizes but does not exhibit the ability to aggregate

Molecule: optoTDP43: CRY2OLIG fused to the entire TDP-43 protein and mCherry
- clustering / aggregation with blue light stimulation (reversibility) (live cells): forms irreversible aggregates
- fluorescence recovery after photobleaching (FRAP) (HEK293 cells [3]): Lack of fluorescence recovery
- localization (HEK293 cells [4]; 488 nm LED stimulation up to 36 hours, confirmed by nuclear/cytoplasmic fractionation): gradual cytoplasmic mislocalization
- aggregation (HEK293 cells [4]; simultaneous chronic blue light exposure and high-throughput automated confocal microscopy): increases in propensity with increasing light exposure
- detergent-solubility (HEK293 cells [5]): drastic shift to the insoluble fraction
- co-localization with EGFP-TDP43 (EGFP-tagged TDP-43): strong co-localization
- p62 staining of inclusions (HEK293 cells [6]): p62-positive
- phosphorylation of inclusions (HEK293 cells [6]): hyperphosphorylated
- ubiquitination of inclusions (HEK293 cells [6]): ubiquitinated
- neuron survival / viability (Human ReN neurons): significantly decreased viability over time

Molecule: optoLCD: CRY2OLIG fused to just the low complexity domain of TDP-43 and mCherry
- clustering / aggregation with blue light stimulation (reversibility) (live cells): forms irreversible aggregates
- oligomerization after a brief pulse of blue light (HEK cells [1]): rapidly oligomerize
- persistence of oligomers (HEK cells [1]): persist much longer than the Cry2 photoreceptor alone
- fluorescence recovery after photobleaching (FRAP) (HEK293 cells [3]): do not recover from FRAP
- time to formation of pathological aggregates (HEK cells [7]; acute stimulation): ≤ 1 hour
- toxicity of aggregates (HEK cells [7]; aggregates grow in size over time): become toxic over time

B1: CRY2OLIG-mCh (other)
chain: MKMDKKTIVWFRRDLRIEDNPALAAAAHEGSVFPVFIWCPEEEGQFYPGRASRWWMKQSLAHLSQSLKALGSDLTLIKTHNTISAILDCIRVTGATKVVFNHLYDPVSLVRDHTVKEKLVERGISVQSYNGDLLYEPWEIYCEKGKPFTSFNSYWKKCLDMSIESVMLPPPWRLMPITAAAEAIWACSIEELGLENEAEKPSNALLTRAWSPGWSNADKLLNEFIEKQLIDYAKNSKKVVGNSTSLLSPYLHFGEISVRHVFQCARMKQIIWARDKNSEGEESADLFLRGIGLREYSRYICFNFPFTHEQSLLSHLRFFPWDADVDKFKAWRQGRTGYPLVDAGMRELWATGWMHNRIRVIVSSFAVKFLLLPWKWGMKYFWDTLLDADLECDILGWQYISGSIPDGHELDRLDNPALQGAKYDPEGEYIRQWLPELARLPTEWIHHPWDAPLTVLKASGVELGTNYAKPIVDIDTARELLAKAISRTRGAQIMIGAA
notes: also called Cry2-mCh; Cry2 photoreceptor-only control; not shown: mCherry reporter and any linker
- binding result [8]: binds

B2: Cry2-mCh: As a control, CRY2OLIG alone fused to mCherry (protein)
chain: MKMDKKTIVWFRRDLRIEDNPALAAAAHEGSVFPVFIWCPEEEGQFYPGRASRWWMKQSLAHLSQSLKALGSDLTLIKTHNTISAILDCIRVTGATKVVFNHLYDPVSLVRDHTVKEKLVERGISVQSYNGDLLYEPWEIYCEKGKPFTSFNSYWKKCLDMSIESVMLPPPWRLMPITAAAEAIWACSIEELGLENEAEKPSNALLTRAWSPGWSNADKLLNEFIEKQLIDYAKNSKKVVGNSTSLLSPYLHFGEISVRHVFQCARMKQIIWARDKNSEGEESADLFLRGIGLREYSRYICFNFPFTHEQSLLSHLRFFPWDADVDKFKAWRQGRTGYPLVDAGMRELWATGWMHNRIRVIVSSFAVKFLLLPWKWGMKYFWDTLLDADLECDILGWQYISGSIPDGHELDRLDNPALQGAKYDPEGEYIRQWLPELARLPTEWIHHPWDAPLTVLKASGVELGTNYAKPIVDIDTARELLAKAISRTRGAQIMIGAA
modifications: left off: large carriers
notes: As a control, CRY2OLIG alone fused to mCherry
- clustering / aggregation with blue light stimulation (reversibility) (live cells): reversibly clusters
- disassembly (HEK cells [1]; after brief pulse of blue light): ~10 min
- co-localization with EGFP-TDP43 (EGFP-tagged TDP-43): no co-localization

B3: CRY2OLIG: Cryptochrome 2 PHR Domain with E490G substitution (protein)
chain: MKMDKKTIVWFRRDLRIEDNPALAAAAHEGSVFPVFIWCPEEEGQFYPGRASRWWMKQSLAHLSQSLKALGSDLTLIKTHNTISAILDCIRVTGATKVVFNHLYDPVSLVRDHTVKEKLVERGISVQSYNGDLLYEPWEIYCEKGKPFTSFNSYWKKCLDMSIESVMLPPPWRLMPITAAAEAIWACSIEELGLENEAEKPSNALLTRAWSPGWSNADKLLNEFIEKQLIDYAKNSKKVVGNSTSLLSPYLHFGEISVRHVFQCARMKQIIWARDKNSEGEESADLFLRGIGLREYSRYICFNFPFTHEQSLLSHLRFFPWDADVDKFKAWRQGRTGYPLVDAGMRELWATGWMHNRIRVIVSSFAVKFLLLPWKWGMKYFWDTLLDADLECDILGWQYISGSIPDGHELDRLDNPALQGAKYDPEGEYIRQWLPELARLPTEWIHHPWDAPLTVLKASGVELGTNYAKPIVDIDTARELLAKAISRTRGAQIMIGAA
- efficiency of clustering upon blue light stimulation ([9]; E490G mutation versus endogenous sequence): slightly increased efficiency of clustering

B4: NcVVDY50W: NcVivid Y50W substitution (protein)
chain: HTLYAPGGYDIMGWLIQIMNRPNPQVELGPVDTSCALILCDLKQKDTPIVYASEAFLYMTGYSNAEVLGRNCRFLQSPDGMVKPKSTRKYVDSNTINTMRKAIDRNAEVQVEVVNFKKNGQRFVNFLTMIPVRDETGEYRYSMGFQCETE
- dissipation from the dimerized state ([9]; Y50W change): slower ability to dissipate from the dimerized state
